Measured values reported in publication PMC11396935, “Exploration of Compounds with 2-Phenylbenzo[d]oxazole Scaffold as Potential Skin-Lightening Agents through Inhibition of Melanin Biosynthesis and Tyrosinase Activity” (Molecules, 2024).
Entries after “also recorded” stand apart in the source; their conditions may differ.

Experiments:
[1] = ABTS radical cation scavenging assay; conditions: 100 μM
Protocol: For ABTS^+• scavenging experiments, ABTS^+• was generated by oxidizing ABTS using potassium persulfate. All test samples (Trolox [TR; positive material] and 1–15) were used at a final concentration of 100 μM. […] Both compounds share a common catechol structure. […] Similar results were obtained in the DPPH radical scavenging experiment. […] Compounds 4, 9, and 14, bearing a 4-hydroxy-3-methoxyphenyl, scavenged ABTS^+• moderately (23–51%).
3.15. 2,2′-Azino-bis(3-ethylbenzothiazoline-6-sulfonic Acid) (ABTS) Radical Cation Scavenging Assay
The effect of the 2-phenylbenzoxazole compounds 1–15 on radical scavenging was assessed using an ABTS assay, as previously reported. An ABTS aqueous solution (7 mM) was mixed with a K2S2O8 aqueous solution (2.45 mM) in equal volumes (each 20 mL) and incubated in the dark for 20 h at 25 °C to generate ABTS^+•. The ABTS^+• solution was then diluted with pure EtOH to adjust the absorbance of the solution to 0.7 ± 0.02 at 730 nm. The test samples (1–15 and Trolox [positive control]) were dissolved in a co-solvent of EtOH and DMSO (9:1, v/v) to make a 1 mM solution. The diluted ABTS^+• solution was mixed with the test sample solution at a volume ratio of 9:1 (90 μL:10 μL) and the mixture was stored for 2 min at 20 °C in the dark. The optical density was measured at 730 nm using an ELISA reader at 1 min intervals for 10 min. All test samples were used at a final concentration of 100 µM.
ABTS^+• radical scavenging activity (%) = [(ODcon − ODsam)/ODcon] × 100, where ODsam and ODcon represent the absorbances of the test sample and the control, respectively.

zebrafish larvae [2] = assay: Melanin content in zebrafish larvae; format: in vivo, zebrafish (Danio rerio); conditions: compound 8 0.025 mM; kojic acid 20 mM; treated 28 hpf, read 74 hpf
Protocol: (§1) . Zebrafish embryos obtained by natural mating were dechorionated at 24 hpf and treated with compound 8 (0.025 mM) or kojic acid (20 mM) at 28 hpf. After 46 h, the melanin content and tyrosinase activity were determined.
(§2) 3.13. Measurement of Melanin Content and Tyrosinase Activity in Zebrafish Larvae
(§3) The effects of the 2-phenylbenzo[d]oxazole compound 8 on the melanin content and tyrosinase activity in the zebrafish larvae were assessed using a previously defined procedure with minor modifications. To quantify the melanin content in the zebrafish larvae, zebrafish embryos were obtained through natural mating and operated in a similar manner to the in vivo depigmentation experiment (25 zebrafish embryos per well in a 24-well plate; dechorionation at 24 hpf; test sample treatment (8 [0.025 mM] and kojic acid [20 mM; positive control]) at 28 hpf). Melanin quantification and tyrosinase activity were quantified at 74 hpf. For melanin quantification, the zebrafish larvae were lysed in RIPA buffer (Biosesang, Gyeonggi-do, Korea) and homogenized using a sonicator. […] The absorbance was measured at 405 nm using a microplate reader. For the tyrosinase activity measurement, the supernatants were transferred to new Eppendorf tubes and the protein was quantified using a Pierce BCA protein assay kit, with the absorbance being measured at 570 nm using a microplate reader. […]

[3] = system: tyrosinase activity in zebrafish larvae; assay: Tyrosinase activity in zebrafish larvae; format: in vivo, zebrafish (Danio rerio); conditions: compound 8 0.025 mM; kojic acid 20 mM; treated 28 hpf, read 74 hpf
Protocol: as §1, §2, §3

zebrafish larvae [4] = assay: In vivo depigmentation experiment using zebrafish embryos
Protocol: Zebrafish embryos were used in this study. […] The zebrafish embryos were obtained through natural mating in our laboratory. The chorion of the zebrafish embryos was removed 24 h post-fertilization (hpf).
In Vivo Depigmentation Experiment Using Zebrafish Embryos
A depigmentation experiment was performed using zebrafish embryos, as previously described [38, 49, 50]. Wild-type zebrafish (Danio rerio) were maintained in a fish tank at 28 °C and fed with dried brine shrimp (Artemia salina, San Francisco Bay Brand, San Francisco, CA, USA) three times daily. The zebrafish embryos were obtained through natural mating in mating cages. The obtained zebrafish embryos were transferred to a 90 mm culture dish containing 200 μL of E3-methylene blue (MB) solution, consisting of 0.001% MB, 0.17 mM KCl, 0.33 mM CaCl2, 0.33 mM MgSO4, and 5 mM NaCl, and incubated in an incubator set at 28 °C. At 24 h post-fertilization (hpf), the zebrafish embryos were dechorionated using pronase (Sigma-Aldrich, St. Louis, MO, USA). […] The 48-well plates were incubated in an incubator set at 28 °C for 48 h. At 76 hpf, the zebrafish larvae were mounted on a 1% methylcellulose block after anesthesia with tricaine methanesulfonate (Thermo Fisher Scientific, Waltham, MA, USA), and photographs of the zebrafish larvae were obtained using a SMZ745T stereoscopic microscope (Nikon, Tokyo, Japan). The pigmented areas of the zebrafish larvae were determined using the CS analyzer 3.0 image analysis software (ATTO, Tokyo, Japan).

[5] = kojic acid 20 mM, compound 8 0.025 mM, compound 13 0.025 and 0.05 mM, 76 hpf

Compound | ABTS+• scavenging activity (% inhibition) [1] [%] | melanin content of zebrafish larvae, vs untreated control (100%) (zebrafish larvae [2]) [%] | % tyrosinase activity in zebrafish larvae, vs untreated control (100%) [3] [%] | toxicity in zebrafish embryos (zebrafish larvae [4]; 0.05 mM) | depigmentation effect on zebrafish larvae (photographs) (zebrafish larvae [4]; [5]) | pigmentation area of zebrafish larvae (CS analyzer) (zebrafish larvae [4]; [5])
Cc1ccc2nc(-c3ccc(O)cc3O)oc2c1 [Compound 3, 4-(6-Methylbenzo[d]oxazol-2-yl)benzene-1,3-diol] | 57 |  |  |  |  | 
Oc1ccc(-c2nc3ccc(Cl)cc3o2)c(O)c1 [Compound 8, 4-(6-Chlorobenzo[d]oxazol-2-yl)benzene-1,3-diol] | 64 | 35 | 29 | weak toxicity | substantially higher depigmentation effects on zebrafish larvae than kojic acid; also recorded: strong potency at 0.025 mM, similar to 13 at 0.05 mM | smallest pigmentation area
Cc1ccc2oc(-c3ccc(O)cc3O)nc2c1 [Compound 13, 4-(5-Methylbenzo[d]oxazol-2-yl)benzene-1,3-diol] | 54 |  |  |  | substantially higher depigmentation effects on zebrafish larvae than kojic acid; also recorded: significantly stronger depigmentation efficacy than kojic acid | 
